Measurements from PMC10478957 (Biochemistry, 2023).

Columns and labels:
BtNosP [1] = molecular target: T1, BtNosP (Burkholderia thailandensis, UniProt Q2T7C0); assay type: binding
T1 sequence (Q2T7C0 1-386): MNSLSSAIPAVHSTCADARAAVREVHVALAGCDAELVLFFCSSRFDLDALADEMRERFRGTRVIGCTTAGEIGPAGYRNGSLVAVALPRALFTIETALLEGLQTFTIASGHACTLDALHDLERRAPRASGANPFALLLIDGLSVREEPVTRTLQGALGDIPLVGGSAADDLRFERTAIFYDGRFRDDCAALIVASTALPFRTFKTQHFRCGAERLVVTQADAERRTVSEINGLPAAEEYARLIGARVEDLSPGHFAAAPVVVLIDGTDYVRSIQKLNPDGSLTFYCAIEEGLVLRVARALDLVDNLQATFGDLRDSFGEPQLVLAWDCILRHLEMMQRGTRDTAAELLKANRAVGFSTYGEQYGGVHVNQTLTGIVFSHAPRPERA

BtNosP [2] = molecular target: BtNosP (Burkholderia thailandensis, UniProt Q2T7C0); test: biochemical; assay type: binding

`[N]=O` [nitric oxide] was tested. Which “UV-vis spectroscopy of Fe(II)-NO complex; CO/dithionite trap NO dissociation rat” value (BtNosP [1]) did it give?
The value was “(1.73 ± 0.6) × 10^−4 s^−1”.

How did the Kd (BtNosP [2]) turn out when `C=CC1=C(C)C2=Cc3c(C=C)c(C)c4[n]3[Fe]([Cl])[n]3c(c(C)c(CCC(=O)O)c3=CC3=NC(=C4)C(C)=C3CCC(=O)O)=CC1=N2` [hemin] was run?
The Kd was 530 ± 120 nM.
